The values below come from patent US20250221966A1, “RXFP1 AGONISTS” (BRISTOL-MYERS SQUIBB COMPANY, priority 2021, published 2025).

One experiment deals with T1, human RXFP1 (Homo sapiens, UniProt Q9HBX9).
T1 construct: expressed in transfected cells
T1 sequence (Q9HBX9 1-757): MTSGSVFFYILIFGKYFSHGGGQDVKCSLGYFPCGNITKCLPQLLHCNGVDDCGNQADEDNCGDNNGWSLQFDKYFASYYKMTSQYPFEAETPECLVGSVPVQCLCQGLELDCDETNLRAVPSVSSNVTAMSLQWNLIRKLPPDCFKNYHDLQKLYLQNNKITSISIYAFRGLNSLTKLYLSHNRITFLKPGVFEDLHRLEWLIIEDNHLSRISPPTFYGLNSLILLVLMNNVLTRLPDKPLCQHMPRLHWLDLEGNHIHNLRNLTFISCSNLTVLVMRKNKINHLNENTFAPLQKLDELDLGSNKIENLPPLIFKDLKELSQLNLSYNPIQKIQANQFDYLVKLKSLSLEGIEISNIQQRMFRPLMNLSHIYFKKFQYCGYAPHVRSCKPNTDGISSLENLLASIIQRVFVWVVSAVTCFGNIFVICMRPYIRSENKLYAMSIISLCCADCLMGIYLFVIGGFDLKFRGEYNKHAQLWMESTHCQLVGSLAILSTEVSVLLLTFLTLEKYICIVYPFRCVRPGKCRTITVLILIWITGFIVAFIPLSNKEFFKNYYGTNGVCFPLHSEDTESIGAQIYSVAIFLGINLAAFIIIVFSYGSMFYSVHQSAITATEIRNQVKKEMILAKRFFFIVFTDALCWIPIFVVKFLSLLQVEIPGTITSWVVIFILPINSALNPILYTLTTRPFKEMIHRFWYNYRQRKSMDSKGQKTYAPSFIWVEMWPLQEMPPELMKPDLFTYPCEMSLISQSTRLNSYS
Briefly: RXFP1 cAMP assay (hRXFP1 HEK293 cAMP assay, HTRF). The class given is cell-based. As to conditions: HEK293 cells stably expressing human RXFP1, 30 min at room temperature, read-out: cAMP hRXFP1 HEK293 Assay EC50. Summed up:
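Intracellular cAMP was read by HTRF, with potency fitted to a 4-parameter logistic curve. Compound exposure (0.010 nM–50 μM final, 2% DMSO) lasted 30 min at room temperature. Cells were hRXFP1-HEK293 at 1500 per well in IBMX-containing (0.5 mM) HEPES-buffered HBSS.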
As for `COc1ccc(C2=NOC(CC(=O)O)C2)cc1C(=O)N[C@@H]1C2CCC(/C2=C/C(F)(F)F)[C@@H]1C(=O)Nc1ccc(F)c(C(F)(F)F)c1` (some centres unmarked) [compound 396], the 50% effective concentration (EC50) is 320 nM.

`COc1ccc(C2=NOC3COCC23)cc1C(=O)N[C@H]1[C@@H](C(=O)N[C@@H]2CCCc3ccccc32)[C@H]2CC[C@@H]1/C2=C\C1CC1` (some centres unmarked) [compound 538]: the concentration giving a half-maximal response (EC50) stood at 26.3 nM.

Turning to `COc1ccc(-c2cc(C3=NOC4CC(O)CC34)ccc2F)cc1C(=O)N[C@H]1[C@@H](C(=O)Nc2ccc(F)c(C(F)(F)F)c2)[C@H]2CC[C@@H]1/C2=C\C1CC1` (some centres unmarked) [compound 909], the EC50 is 4 nM.

For the molecule `COc1ccc(C2=NOC3CCCC23)cc1C(=O)N[C@H]1[C@@H](C(=O)Nc2ccc(F)c(C(F)(F)F)c2)[C@H]2CC[C@@H]1/C2=C\C1CC1` (single isomer, unassigned) [Example 441], the half-maximal effective concentration (EC50) came out at 360 nM.

With `COc1ccc(C2=NOC3CC(C(N)=O)CC23)cc1C(=O)N[C@H]1[C@@H](C(=O)NCC(C)(C)C)[C@H]2CC[C@@H]1/C2=C\C1CC1` (some centres unmarked) [compound 516], the EC50 amounted to 17.6 nM.

As to `COc1ccc(C2=NOC3COCC23)cc1C(=O)N[C@H]1[C@@H](C(=O)NC2(Cc3ccccc3)CC2)[C@H]2CC[C@@H]1/C2=C\C1CC1` (some centres unmarked) [compound 653], the concentration giving a half-maximal response (EC50) came out at 285 nM.

Take `COc1ccc(-c2cc(C(=O)O)ccc2F)cc1C(=O)N[C@@H]1C2CCC(/C2=C/C2CC2)[C@@H]1C(=O)Nc1cccc(-c2csnn2)c1` (some centres unmarked) [compound 271]: the half-maximal effective concentration (EC50) was determined as 664 nM.

In the case of `COc1ccc(-c2ncc(CO)s2)cc1C(=O)N[C@H]1[C@@H](C(=O)Nc2ccc(F)c(C(F)(F)F)c2)[C@H]2CC[C@@H]1/C2=C\C1CCCC1` [compound 750], the EC50 came to 3.5 nM.

Turning to `COc1ccc(C2=NOC3(CCCC3)C2)cc1C(=O)N[C@H]1[C@@H](C(=O)Nc2ccc(F)c(C(F)(F)F)c2)[C@H]2CC[C@@H]1/C2=C\C1CC1` [compound 642], the half-maximal effective concentration (EC50) was 219 nM.

On to `COc1ccc(-c2cc(CC(=O)O)ccc2F)cc1C(=O)N[C@@H]1C2CCC(C2=C(C)C)[C@@H]1C(=O)Nc1ccc(F)c(C(F)(F)F)c1` (some centres unmarked) [compound 155], for which the EC50 came to 87 nM.

In the case of `COC(=O)NC(C(=O)O)c1ccc(F)c(-c2ccc(OC)c(C(=O)N[C@@H]3C4CCC(/C4=C/C(F)(F)F)[C@@H]3C(=O)Nc3ccc(F)c(C(F)(F)F)c3)c2)c1` (some centres unmarked) [compound 185], the EC50 turned out to be 15 nM.

`COc1ccc(-c2cc(C(=O)O)ccc2F)cc1C(=O)N[C@@H]1C2CCC(/C2=C/C2CC2)[C@@H]1C(=O)NC1Cc2ccccc2C1` (some centres unmarked) [compound 308]: the 50% effective concentration (EC50) came to 2390 nM.

For the molecule `COc1ccc(C2=NOC3C[C@H](O)CC23)cc1C(=O)N[C@@H]1C2CCC(/C2=C/C2CC2)[C@@H]1C(=O)Nc1ccc(F)c(C(F)(F)F)c1` (some centres unmarked) [compound 407], the EC50 turned out to be 21 nM.

Consider `COc1ccc(-c2ccc(C(=O)O)cc2)cc1C(=O)N[C@@H]1C2CCC(/C2=C/C2CC2)[C@@H]1C(=O)Nc1ccc(F)c(C(F)(F)F)c1` (some centres unmarked) [compound 167], for which the EC50 stood at 16 nM.

For `COc1ccc(-c2cccc3c2ccn3C(=O)OC(C)(C)C)cc1C(=O)N[C@H]1[C@@H](C(=O)Nc2ccc(F)c(C(F)(F)F)c2)[C@H]2CC[C@@H]1/C2=C\C1CC1` [compound 880], the EC50 was determined as 1.6 nM.

As for `CC[C@H](NC(=O)[C@@H]1[C@H](NC(=O)c2cc(C3=NOC4COCC34)ccc2OC)[C@@H]2CC[C@H]1/C2=C/C1CC1)C1CCC1` (some centres unmarked) [compound 676], the 50% effective concentration (EC50) was 486 nM.

Consider `COc1cc(F)c(F)cc1C(=O)N[C@@H]1C2CCC(/C2=C/C2=CCCCC2)[C@@H]1C(=O)Nc1ccc(F)c(C(F)(F)F)c1` (some centres unmarked) [compound 35], for which the concentration for a half-maximal effect (EC50) is 30 nM.

Regarding `O=C(N[C@H]1[C@@H](C(=O)Nc2ccc(F)c(C(F)(F)F)c2)[C@H]2CC[C@@H]1/C2=C\C1CC1)c1cc(C2=NOC3CC(CO)CC23)cc(F)c1OCCCF` (some centres unmarked) [compound 784], the half-maximal effective concentration (EC50) is 3.4 nM.

For `COc1ccc(C2=NOC3COCC23)cc1C(=O)N[C@H]1[C@@H](C(=O)NCc2cc(C)ccc2C(F)(F)F)[C@H]2CC[C@@H]1/C2=C\C1CC1` (some centres unmarked) [compound 659], the concentration for a half-maximal effect (EC50) worked out at 347 nM.

For the molecule `COC(=O)c1c[nH]c2cc(-c3ccc(OC)c(C(=O)N[C@@H]4C5CCC(/C5=C/C(F)(F)F)[C@@H]4C(=O)Nc4ccc(F)c(C(F)(F)F)c4)c3)ccc12` (some centres unmarked) [compound 296], the concentration for a half-maximal effect (EC50) stood at 205 nM.

In the case of `COc1ccc(-c2cccc3c2CC(=O)N3)cc1C(=O)N[C@H]1[C@@H](C(=O)Nc2ccc(F)c(C(F)(F)F)c2)[C@H]2CC[C@@H]1/C2=C\C1CC1` [compound 890], the half-maximal effective concentration (EC50) was 2.4 nM.

Take `COc1ccc(C2=NOC3CC(C#N)CC23)cc1C(=O)N[C@H]1[C@@H](C(=O)N[C@H](C)C2(C)CC2)[C@H]2CC[C@@H]1/C2=C\C1CC1` (some centres unmarked) [compound 760]: the EC50 is 1.2 nM.

As for `COc1ccc(-c2cc(C3=NOC(C(=O)O)C3)ccc2F)cc1C(=O)N[C@H]1[C@@H](C(=O)Nc2ccc(F)c(C(F)(F)F)c2)[C@H]2CC[C@@H]1/C2=C\C1CC1` (some centres unmarked) [compound 947], the EC50 was 8.6 nM.

Consider `COc1ccc(-c2cccc(S(C)(=O)=O)c2)cc1C(=O)N[C@H]1[C@@H](C(=O)Nc2ccc(F)c(C(F)(F)F)c2)[C@H]2CC[C@@H]1/C2=C\C1CC1` [compound 898], for which the concentration giving a half-maximal response (EC50) was found to be 3.9 nM.

Consider `COc1ccc(Br)cc1C(=O)NC1C2CCC(C2=C(C)C)C1C(=O)Nc1ccc(F)c(C(F)(F)F)c1` (centres unmarked) [Example 76], for which the concentration giving a half-maximal response (EC50) is 400 nM.

`COc1ccc(-c2cc(C(NC(=O)C3CCOCC3)C(=O)O)ccc2F)cc1C(=O)N[C@H]1[C@@H](C(=O)Nc2ccc(F)c(C(F)(F)F)c2)[C@H]2CC[C@@H]1/C2=C\CCC(F)(F)F` (some centres unmarked) [compound 940]: the EC50 was found to be 4.1 nM.

With `CCCCNC(=O)[C@@H]1[C@H](NC(=O)c2cc(C3=NOC4COCC34)ccc2OC)[C@@H]2CC[C@H]1/C2=C/C1CC1` (some centres unmarked) [compound 614], the concentration giving a half-maximal response (EC50) turned out to be 138 nM.

Take `COc1ccc(C2=NOC3CC(CO)CC23)cc1C(=O)N[C@H]1[C@@H](C(=O)N[C@H](C)C2(C)CC2)[C@H]2CC[C@@H]1/C2=C\c1ccncn1` (some centres unmarked) [compound 807]: the EC50 is 2.1 nM.

For the molecule `COc1ccc(C2=NOC3CC(OC)CC23)cc1C(=O)N[C@@H]1C2CCC(/C2=C/C2CC2)[C@@H]1C(=O)Nc1ccc(F)c(C(F)(F)F)c1` (some centres unmarked) [compound 867], the concentration giving a half-maximal response (EC50) is 3.7 nM.

On to `COc1ccccc1CNC(=O)[C@@H]1[C@H](NC(=O)c2cc(C3=NOC4COCC34)ccc2OC)[C@@H]2CC[C@H]1/C2=C/C1CC1` (some centres unmarked) [compound 681], for which the EC50 was 606 nM.

For the molecule `COc1ccc(C2=NOC(C)(CO)C2)cc1C(=O)N[C@H]1[C@@H](C(=O)Nc2ccc(F)c(C(F)(F)F)c2)[C@H]2CC[C@@H]1C2=CC1CC1` (single isomer, unassigned) [compound 480], the EC50 came to 6.7 nM.

Regarding `COc1ccc(-c2cc(C(=O)O)ccc2F)cc1C(=O)N[C@@H]1C2CCC(/C2=C/C2CC2)[C@@H]1C(=O)NCc1cccc(C(F)(F)F)c1` (some centres unmarked) [compound 264], the EC50 came out at 3180 nM.

In the case of `C=C/C=C1\C2CCC1[C@H](C(=O)Nc1ccc(F)c(C(F)(F)F)c1)[C@@H]2NC(=O)c1cc(F)c(F)cc1OC` (some centres unmarked) [compound 44], the EC50 is 26 nM.

With `COc1ccc(C2=NOC3CN(C(=O)OC(C)(C)C)CC23)cc1C(=O)N[C@@H]1C2CCC(/C2=C/C2CC2)[C@@H]1C(=O)Nc1ccc(F)c(C(F)(F)F)c1` (some centres unmarked) [compound 436], the EC50 was found to be 4 nM.

Regarding `COc1c(F)cc(-c2ccc3c(c2)S(=O)(=O)N(C(C)(C)C)C3)cc1C(=O)N[C@H]1[C@@H](C(=O)N[C@H](C)C2(C)CC2)[C@H]2CC[C@@H]1/C2=C\C1CC1` [compound 916], the EC50 is 3.6 nM.

In the case of `COc1ccc(-c2cc(C(CC(F)(F)F)NC(=O)C3CCOCC3)ccc2F)cc1C(=O)N[C@H]1[C@@H](C(=O)Nc2ccc(F)c(C(F)(F)F)c2)[C@H]2CC[C@@H]1/C2=C\C1CCCC1` (some centres unmarked) [compound 944], the EC50 worked out at 1.9 nM.

For the molecule `COc1ccc(-c2ccncc2OC)cc1C(=O)N[C@H]1[C@@H](C(=O)Nc2ccc(F)c(C(F)(F)F)c2)[C@H]2CC[C@@H]1C2=C(C)C` [compound 89], the EC50 worked out at 330 nM.

On to `CCOC(=O)c1cc2cc(-c3ccc(OC)c(C(=O)N[C@@H]4C5CCC(/C5=C/C(F)(F)F)[C@@H]4C(=O)Nc4ccc(F)c(C(F)(F)F)c4)c3)ccc2[nH]1` (some centres unmarked) [compound 297], for which the half-maximal effective concentration (EC50) is 73 nM.

Regarding `COc1ccc(C2=NOC3CC(C(C)(C)O)CC23)cc1C(=O)N[C@H]1[C@@H](C(=O)Nc2ccc(F)c(C(F)(F)F)c2)[C@H]2CC[C@@H]1/C2=C\C1CC1` (single isomer, unassigned) [compound 579], the EC50 was found to be 71.6 nM.

For `COc1cc(F)c(F)cc1C(=O)N[C@@H]1C2CCC(/C2=C/c2ccccc2F)[C@@H]1C(=O)Nc1ccc(F)c(C(F)(F)F)c1` (some centres unmarked) [compound 54], the half-maximal effective concentration (EC50) was 160 nM.

Staying with this experiment, now noted: cAMP hRXFP1 HEK293 Assay EC50, HEK293 cells stably expressing human RXFP1, 30 min at room temperature.
On to `COc1cc(F)c(F)cc1C(=O)N[C@@H]1C2CCC(/C2=C2\C=Cc3ccccc32)[C@@H]1C(=O)Nc1ccc(F)c(C(F)(F)F)c1` (some centres unmarked) [Example 33], for which a half-maximal response (EC50) required 310 nM.

For orientation: EC50 means the concentration at which the effect is half-maximal.
